Results as given in patent US20040171086A1, “Selective modulation of TLR-mediated biological activity” (3M Innovative Properties Company, priority 2003, published 2004).

Assays:
[1] = molecular target: T1, TLR7 (Homo sapiens, UniProt Q9NYK1); test: NFκB-luciferase reporter assay in HEK293 cells transfected with human TLR7 (HEK293-TLR7); format: cell-based; design: expressed in transfected cells; host or cells: HEK293 (ATCC CRL-1573), pIRES vector, G-418 selected; conditions: HEK293-TLR7, 10 μM IRM, 16 hours
T1 sequence (Q9NYK1 27-1049): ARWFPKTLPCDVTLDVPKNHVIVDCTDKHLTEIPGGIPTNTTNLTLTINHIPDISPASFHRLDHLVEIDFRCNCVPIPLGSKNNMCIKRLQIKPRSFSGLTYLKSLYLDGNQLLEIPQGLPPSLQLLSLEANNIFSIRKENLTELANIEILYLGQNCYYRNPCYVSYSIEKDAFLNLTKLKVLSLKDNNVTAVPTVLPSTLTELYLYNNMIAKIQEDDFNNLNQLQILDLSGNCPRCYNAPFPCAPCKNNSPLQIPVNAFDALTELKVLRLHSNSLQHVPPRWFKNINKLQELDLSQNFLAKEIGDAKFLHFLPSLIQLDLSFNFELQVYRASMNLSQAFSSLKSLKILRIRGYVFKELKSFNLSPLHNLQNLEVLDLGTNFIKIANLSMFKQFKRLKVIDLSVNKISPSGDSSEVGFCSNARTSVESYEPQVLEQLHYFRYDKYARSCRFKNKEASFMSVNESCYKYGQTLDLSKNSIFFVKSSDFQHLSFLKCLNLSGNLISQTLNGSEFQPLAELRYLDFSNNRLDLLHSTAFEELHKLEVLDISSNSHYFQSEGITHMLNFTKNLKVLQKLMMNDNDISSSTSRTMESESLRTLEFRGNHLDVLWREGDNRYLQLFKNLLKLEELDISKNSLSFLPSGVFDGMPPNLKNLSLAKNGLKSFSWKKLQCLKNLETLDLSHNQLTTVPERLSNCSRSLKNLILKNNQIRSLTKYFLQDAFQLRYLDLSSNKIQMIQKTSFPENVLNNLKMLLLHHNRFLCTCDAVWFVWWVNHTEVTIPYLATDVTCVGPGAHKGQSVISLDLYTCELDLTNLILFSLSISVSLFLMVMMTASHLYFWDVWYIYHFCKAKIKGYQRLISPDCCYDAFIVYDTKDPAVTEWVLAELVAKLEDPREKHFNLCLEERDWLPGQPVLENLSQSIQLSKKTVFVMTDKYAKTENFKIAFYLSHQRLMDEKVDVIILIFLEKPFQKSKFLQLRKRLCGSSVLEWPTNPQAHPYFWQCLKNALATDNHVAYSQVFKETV
Protocol: (§1) A compound was identified as increasing cellular activity mediated through a given TLR if it induced at least a two-fold increase in NFκB-induced luciferase signal compared to the control.
(§2) HEK293 medium was prepared from 90% Minimum Essential Medium (MEM) with 2 mM L-glutamine and Earle's Balanced Salt Solution (Invitrogen Corp., Rockville, Md.) adjusted to contain 1.5 g/L sodium bicarbonate, 0.1 mM non-essential amino acids, and 1.0 mM sodium pyruvate; 10% heat-inactivated fetal calf serum. HEK293 cells were cultured by incubating cells in HEK293 medium overnight at 37° C., 8% CO2.
(§3) The cells were co-transfected with (1) pIRES (BD Biosciences Clontech, Palo Alto, Calif.) either (a) unmodified (HEK293-vector), (b) containing an expressible human TLR7 gene (HEK293-TLR7), or (c) containing an expressible human TLR8 gene (HEK293-TLR8), and (2) NFκB-luc reporter (Stratagene, La Jolla, Calif.) in a 10:1 ratio with Fugene 6 transfection reagent (Roche Diagnostics Corp., Indianapolis, Ind.) following the manufacturer's instructions.
(§4) The cells were stimulated with 1 μL of IRM compounds at 1 mM in DMSO (final IRM concentration of 10 μM) or 1 μL DMSO as a control. The plates were then incubated an additional 16 hours at 37° C., 5% CO2. The luciferase signal was read using the LucLite kit (Packard Instrument Co., Meriden, Conn.). Luminescence was measured on an LMAX luminometer (Molecular Devices Corp., Sunnyvale, Calif.).

[2] = molecular target: T2, human TLR8 (Homo sapiens, UniProt Q9NR97); test: NFκB-luciferase reporter assay in HEK293 cells transfected with human TLR8 (HEK293-TLR8); format: cell-based; conditions: HEK293-TLR8, 10 μM IRM, 16 hours
T2 construct: expressed in transfected cells; host or cells: HEK293 (ATCC CRL-1573), pIRES vector, G-418 selected
T2 sequence (Q9NR97 27-1041): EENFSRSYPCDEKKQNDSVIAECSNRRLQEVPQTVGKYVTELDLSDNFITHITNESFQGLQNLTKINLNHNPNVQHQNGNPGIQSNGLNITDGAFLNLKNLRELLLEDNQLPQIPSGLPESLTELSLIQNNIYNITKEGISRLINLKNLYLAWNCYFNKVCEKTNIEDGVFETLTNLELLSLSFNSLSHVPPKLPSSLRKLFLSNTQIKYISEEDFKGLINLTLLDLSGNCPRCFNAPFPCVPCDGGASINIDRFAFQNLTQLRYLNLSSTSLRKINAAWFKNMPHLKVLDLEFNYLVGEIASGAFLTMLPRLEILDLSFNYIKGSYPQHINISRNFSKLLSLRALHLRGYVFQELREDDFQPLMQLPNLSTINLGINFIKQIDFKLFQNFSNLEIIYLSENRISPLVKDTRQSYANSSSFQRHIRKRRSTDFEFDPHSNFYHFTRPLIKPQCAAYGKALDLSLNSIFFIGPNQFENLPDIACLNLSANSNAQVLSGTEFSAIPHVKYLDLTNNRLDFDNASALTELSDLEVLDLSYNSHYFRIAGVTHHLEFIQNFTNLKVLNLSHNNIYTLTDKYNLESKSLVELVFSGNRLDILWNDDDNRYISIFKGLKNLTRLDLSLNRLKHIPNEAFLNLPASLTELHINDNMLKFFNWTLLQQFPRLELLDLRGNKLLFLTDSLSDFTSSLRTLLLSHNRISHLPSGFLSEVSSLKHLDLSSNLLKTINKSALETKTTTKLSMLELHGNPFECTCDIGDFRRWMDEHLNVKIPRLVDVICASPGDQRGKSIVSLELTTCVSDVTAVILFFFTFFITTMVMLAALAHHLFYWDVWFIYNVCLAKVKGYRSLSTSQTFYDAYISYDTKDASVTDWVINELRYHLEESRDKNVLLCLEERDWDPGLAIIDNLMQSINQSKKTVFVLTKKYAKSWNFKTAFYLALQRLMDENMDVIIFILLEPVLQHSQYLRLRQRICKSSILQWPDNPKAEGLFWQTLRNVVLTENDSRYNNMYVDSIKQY
Protocol: as §1, §2, §3, §4

Row | TLR7: fold increase of NFκB-induced luciferase signal compared to a DMSO control [1] [fold increase] | TLR8: fold increase of NFκB-induced luciferase signal compared to a DMSO control [2] [fold increase] | Compound
1 | 4.16 | 0.91 | Cc1nc2c(N)nc3ccccc3c2n1CCOCCCc1cccnc1 [IRM2, 2-methyl-1-[2-(3-pyridin-3-ylpropoxy)ethyl]-1H-imidazo[4,5-c]quinolin-4-amine]
2 | 4.98 | 1.06 | Cc1nc2c(N)nc3ccccc3c2n1CCOCc1ccccc1 [IRM4, 1-[2-(benzyloxy)ethyl]-2-methyl-1H-imidazo[4,5-c]quinolin-4-amine]
3 | 3.38 | 0.94 | COCCc1nc2c(N)nc3ccccc3c2n1CCCCCCCCNC(=O)Nc1ccccc1 [IRM5, N-{8-[4-amino-2-(2-methoxyethyl)-1H-imidazo[4,5-c]quinolin-1-yl]octyl}-N′-phenylurea]
4 | 6.22 | 0.86 | COCCc1nc2c(N)nc3ccccc3c2n1CCCNS(=O)(=O)c1ccc(C)cc1 [IRM7, N-{3-[4-amino-2-(2-methoxyethyl)-1H-imidazo[4,5-c]quinolin-1-yl]propyl}-4-methylbenzenesulfonamide]
5 | 0.64 | 9.24 | CCCCc1nc2c(N)nc3cccnc3c2n1CCNC(=O)C(N)CC(C)C (stereo not drawn) [IRM10, N^1-[2-(4-amino-2-butyl-1H-imidazo[4,5-c][1,5]naphthyridin-1-yl)ethyl]-2-amino-4-methylpentanamide]
6 | 1.44 | 10.69 | Nc1nc2ccccc2c2c1ncn2CCCCNC(=O)c1ccccc1Oc1ccccc1 [IRM11, N^1-[4-(4-amino-1H-imidazo[4,5-c]quinolin-1-yl)butyl]-2-phenoxybenzamide]
7 | 1.16 | 8.84 | CCCCc1nc2c(N)nc3ccccc3c2n1CCNS(=O)(=O)CCC [IRM12, N^1-[2-(4-amino-2-butyl-1H-imidazo[4,5-c]quinolin-1-yl)ethyl]-1-propanesulfonamide]
8 | 0.86 | 6.25 | CCc1nc2c(N)nc3ccccc3c2n1CCOCCNC(=O)Nc1ccccc1 [IRM13, N-{2-[2-(4-amino-2-ethyl-1H-imidazo[4,5-c]quinolin-1-yl)ethoxy]ethyl}-N′-phenylurea]
9 | 0.92 | 5.52 | CCOCc1nc2c(N)nc3ccccc3c2n1CCNC(=O)Nc1cccc(C#N)c1 [IRM15, N-{2-[4-amino-2-(ethoxymethyl)-1H-imidazo[4,5-c]quinolin-1-yl]ethyl}-N′-(3-cyanophenyl)urea]
10 | 5.06 | 2.77 | CCCCc1nc2c(N)nc(C)c(C)c2n1CC(C)(C)O [IRM18, 4-amino-2-butyl-α,α,6,7-tetramethyl-1H-imidazo[4,5-c]pyridine-1-ethanol]
11 | 4.22 | 6.04 | CCc1nc2c(N)nc3ccccc3c2n1CCCCS(=O)(=O)c1cc(Cl)cc(Cl)c1 [IRM20, 1-{4-[(3,5-dichlorophenyl)sulfonyl]butyl}-2-ethyl-1H-imidazo[4,5-c]quinolin-4-amine]

Row | Compound | TLR7: fold increase of NFκB-induced luciferase signal compared to a DMSO control [1] [fold increase] | TLR8: fold increase of NFκB-induced luciferase signal compared to a DMSO control [2] [fold increase]
12 | COCCc1nc2c(N)nc3ccccc3c2n1CC(C)(C)O [IRM17, 4-amino-α,α-dimethyl-2-methoxyethyl-1H-imidazo[4,5-c]quinoline-1-ethanol] | 2.53 | 10.18
